Reference: patent US8729254B2, “Derivative of glucose and vitamin F, compositions comprising it, uses and preparation process” (L'Oreal, priority 2002, dated 2014)

Key:
[1] = target: T1, purified soybean 15-lipoxygenase L1 (Glycine max, UniProt P08170); assay: inhibition of purified soybean 15-lipoxygenase (oxymeter, Vmax of oxygen consumption); format: biochemical; conditions: test compound at 1 mM, relative to the control (DMSO), 25° C., pH 7.5, average of 10 tests
T1 sequence (P08170 1-839): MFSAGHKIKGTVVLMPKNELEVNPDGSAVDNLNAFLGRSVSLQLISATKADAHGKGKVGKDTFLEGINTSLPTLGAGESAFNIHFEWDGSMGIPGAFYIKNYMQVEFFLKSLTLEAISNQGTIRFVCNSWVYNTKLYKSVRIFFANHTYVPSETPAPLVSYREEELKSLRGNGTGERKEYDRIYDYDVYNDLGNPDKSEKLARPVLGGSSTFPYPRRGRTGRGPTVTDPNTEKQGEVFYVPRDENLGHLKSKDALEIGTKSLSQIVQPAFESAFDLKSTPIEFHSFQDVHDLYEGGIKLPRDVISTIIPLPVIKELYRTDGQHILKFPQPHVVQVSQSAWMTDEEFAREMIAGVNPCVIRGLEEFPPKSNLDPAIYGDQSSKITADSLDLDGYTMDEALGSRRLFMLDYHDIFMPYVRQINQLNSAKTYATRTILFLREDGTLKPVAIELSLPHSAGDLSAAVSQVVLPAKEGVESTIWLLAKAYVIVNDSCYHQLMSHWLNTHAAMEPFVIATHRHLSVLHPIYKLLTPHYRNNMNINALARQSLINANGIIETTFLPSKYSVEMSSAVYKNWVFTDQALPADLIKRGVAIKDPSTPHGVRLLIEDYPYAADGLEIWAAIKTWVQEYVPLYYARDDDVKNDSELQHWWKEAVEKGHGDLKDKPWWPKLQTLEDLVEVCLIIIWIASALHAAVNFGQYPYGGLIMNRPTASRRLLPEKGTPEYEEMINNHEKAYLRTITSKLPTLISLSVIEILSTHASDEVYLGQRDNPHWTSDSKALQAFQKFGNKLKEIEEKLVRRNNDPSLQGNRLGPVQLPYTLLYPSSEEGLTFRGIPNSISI
Protocol: The effect of the compounds of disclosed herein on the inhibition of purified soybean 15-lipoxygenase was thus tested, given that soybean 15-lipoxygenase is a study model commonly used as a predictive model for human 5-lipoxygenase.
The test performed was as follows:
preparation of a 100 mM, pH 7.5 Tris buffer solution
preparation of a suspension of purified soybean 15-lipoxygenase L1 (0.20 mg/ml) in a pH 7.5100 mM Tris buffer; storage in ice;
calibration of the oxymeter, tank equipped with a magnetic stirring system and thermostatically maintained at 25° C.;
preparation of an aqueous-alcoholic solution (absolute ethanol/water, 5/95, v/v) of potassium arachidonate at a concentration of 7.5 mM;
preparation of a solution of the test compound at a concentration of 30 mM in dimethyl sulphoxide (DMSO);
introduction into the oxymeter tank, with stirring, of 456.6 μl of buffer solution, 16.7 μl of potassium arachidonate solution and 16.7 μl of solution of the test compound or 16.7 μl of DMSO in the case of the “control” measurement.
The recorder was switched on and 10 μl of suspension of 15-lipoxygenase was introduced into the tank.
The maximum rate of consumption of oxygen (Vmax) was recorded.
The various Vmax values were compared with that of the control and the results were expressed as a % thereof. The test was repeated 10 times and an average of these 10 tests were determined.

[2] = 0.1% by weight in ethanol/isopropanol/water (64/16/20 by volume), 45° C., 2 months; hydrolysed glucopyranose linoleate by HPLC
Protocol: The stability of the compounds disclosed herein were assessed (measured by the hydrolysis of the esters).
Solutions comprising 0.1% by weight of the compounds in an ethanol/isopropanol/water mixture (64/16/20 by volume) were prepared. These solutions were left in a chamber thermostatically maintained at 45° C. for 2 months.

Row | inhibition at 1000 µM [1] | % of hydrolysis [2] | Compound
1 | 30% |  | CCCCCCCCC=CCCCCCCCC(=O)OC[C@H]1OC(O)[C@H](O)[C@@H](O)[C@@H]1O (stereo partly drawn) [Compound B, 6-O-octadeca-9-enoyl-D-glucopyranose]
2 | 15% |  | CCCCCCCCCCCCCCCC(=O)OC[C@H]1OC(O)[C@H](O)[C@@H](O)[C@@H]1O (stereo partly drawn) [Compound D, 6-O-hexadecanoyl-D-glucopyranose]
3 | 71% | 7% | CCCCCC=CCC=CCCCCCCCC(=O)OC[C@H]1OC(O)[C@H](O)[C@@H](O)[C@@H]1O (stereo partly drawn) [Compound A, 6-O-octadeca-9,12-dienoyl-D-glucopyranose]
4 | 49% |  | CCCCCCCCCCCCCCCCCC(=O)OC[C@H]1OC(O)[C@H](O)[C@@H](O)[C@@H]1O (stereo partly drawn) [Compound C, 6-O-octadecanoyl-D-glucopyranose]
5 | 80% | 30% | CCCCCC=CCC=CCCCCCCCC(=O)O[C@H]1[C@H](O)[C@@H](CO)OC(O)[C@@H]1O (stereo partly drawn) [Compound E, 3-O-octadeca-9,12-dienoyl-D-glucopyranose]
